Assays:
[1] = refractive index (Na D-line) (dimensionless); xn = mol fraction of the nth substance listed; details: 101 kPa, Liquid, Standard Abbe refractometry
[2] = xn = mol fraction of the nth substance listed; details: 101 kPa, Liquid; for speed of sound: Sing-around technique in a fixed-path interferometer; for mass density: Vibrating tube method

CCOC(C)=O [ethyl acetate] + CCCCCC
Details | mass density, 293.15 K [kg/m3] | mass density, 298.15 K [kg/m3] | mass density, 303.15 K [kg/m3] | refractive index, 293.15 K | refractive index, 298.15 K | refractive index, 303.15 K | speed of sound, 293.15 K [m/s] | speed of sound, 298.15 K [m/s] | speed of sound, 303.15 K [m/s]
[1], x2 = 0 | – | – | – | 1.37241 | 1.36977 | 1.36712 | – | – | –
[1], x2 = 0.0469 | – | – | – | 1.37193 | 1.36926 | 1.3666 | – | – | –
[1], x2 = 0.0969 | – | – | – | 1.37157 | 1.3689 | 1.36622 | – | – | –
[1], x2 = 0.1898 | – | – | – | 1.37105 | 1.36832 | 1.36559 | – | – | –
[1], x2 = 0.2962 | – | – | – | 1.3706 | 1.36785 | 1.36513 | – | – | –
[1], x2 = 0.3907 | – | – | – | 1.37053 | 1.36776 | 1.365 | – | – | –
[1], x2 = 0.5028 | – | – | – | 1.37066 | 1.36789 | 1.36511 | – | – | –
[1], x2 = 0.598 | – | – | – | 1.37101 | 1.36823 | 1.36547 | – | – | –
[1], x2 = 0.6995 | – | – | – | 1.3718 | 1.36896 | 1.36611 | – | – | –
[1], x2 = 0.803 | – | – | – | 1.37266 | 1.3698 | 1.36689 | – | – | –
[1], x2 = 0.9005 | – | – | – | 1.37381 | 1.37096 | 1.36803 | – | – | –
[1], x2 = 0.9514 | – | – | – | 1.3744 | 1.37157 | 1.36866 | – | – | –
[2], x2 = 0 | 900.5 | 894.4 | 888.2 | – | – | – | 1162 | 1141 | 1111
[2], x2 = 0.0469 | 884.3 | 878.2 | 872.2 | – | – | – | 1152 | 1129 | 1099
[2], x2 = 0.0969 | 868 | 862 | 855.9 | – | – | – | 1141 | 1119 | 1089
[2], x2 = 0.1898 | 838.9 | 833.1 | 827.3 | – | – | – | 1125 | 1103 | 1074
[2], x2 = 0.2962 | 808.6 | 803 | 797.3 | – | – | – | 1111 | 1089 | 1061
[2], x2 = 0.3907 | 783.5 | 778 | 772.4 | – | – | – | 1101 | 1079 | 1053
[2], x2 = 0.5028 | 756 | 750.7 | 745.3 | – | – | – | 1093 | 1071 | 1046
[2], x2 = 0.598 | 734.5 | 729.3 | 724.1 | – | – | – | 1090 | 1067 | 1042
[2], x2 = 0.6995 | 713.1 | 708.1 | 703.1 | – | – | – | 1088 | 1066 | 1041
[2], x2 = 0.803 | 693.3 | 688.4 | 683.5 | – | – | – | 1089 | 1067 | 1043
[2], x2 = 0.9005 | 675.8 | 671.1 | 666.4 | – | – | – | 1093 | 1071 | 1047
[2], x2 = 0.9514 | 667.3 | 662.7 | 658.1 | – | – | – | 1096 | 1074 | 1051
